The values that follow come from ChEMBL document CHEMBL5625193, “Modulation of taxane binding to tubulin curved and straight conformations by systematic 3'N modification provides for improved microtubule binding, persistent cytotoxicity and in vivo potency” (Eur J Med Chem, 2023).

The structures appear in SMILES notation.

The conditions of data set [1]: human, mda-mb-231, 24 h.
For data set [2] the following is noted: human, mda-mb-231, 2 h.

On to `CC(=O)O[C@H]1C(=O)[C@@]2(C)[C@H]([C@H](OC(=O)c3ccccc3)[C@]3(O)C[C@H](OC(=O)[C@H](O)[C@@H](NC(=O)c4ccccc4)c4ccccc4)C(C)=C1C3(C)C)[C@]1(OC(C)=O)CO[C@@H]1C[C@@H]2O` [PACLITAXEL], for which the Drug uptake result in data set [1] and in data set [2] was “Active” throughout.
